# Values of other authors, collected in US20230263755A1, “STABILIZATION OF ACETAMINOPHEN IN AQUEOUS SOLUTION” (Nostrum Pharmaceuticals, LLC, priority 2022, published 2023).
structure (smiles),measurement,value
"CC(=O)Nc1ccc(O)cc1 [acetaminophen, N-(4-hydroxyphenyl)acetamide]",half-life,about 2 hours
